The results in this text go back to ChEMBL document CHEMBL5120861, “Short peptide pharmacophores developed from protein phosphatase-1 disrupting peptides (PDPs)” (Bioorg Med Chem, 2022).

Where a SMILES comes first, the peptide text is derived from it. [ ]: non-standard residue; d: D form. 1Nal = N[C@@H](Cc1cccc2ccccc12)C(=O)O; 2Nal = N[C@@H](Cc1ccc2ccccc2c1)C(=O)O; NMeF = CN[C@@H](Cc1ccccc1)C(=O)O; hArg = N=C(N)NCCCC[C@H](N)C(=O)O; β3hR = N=C(N)NCCC[C@H](N)CC(=O)O; Cha = N[C@@H](CC1CCCCC1)C(=O)O; β3hK = NCCCC[C@H](N)CC(=O)O

As a reminder, the EC50 is the concentration needed to bring the measured effect to its halfway point.

A short description of this assay: Disruption of PP1 holoenzyme (unknown origin) interaction with protein inhibitor 2 assessed as increase in PP1 phosphatase activity by measuring increase in fluorescence using DiFMUP as substrate enzyme preincubated with I2 for ten mins followed by compound treatment for 20 mins followed by substrate addition by fluorescence based analysis. Set-up: species or system Homo sapiens.

In the case of `CC(C)[C@H](NC(=O)[C@H](CCCNC(=N)N)NC(=O)[C@H](N)CCCCN)C(=O)N[C@@H](Cc1cnc[nH]1)C(=O)N[C@@H](Cc1ccccc1)C(N)=O`, the EC50 is 2.6 µM.

For `CC[C@H](C)[C@H](NC(=O)[C@@H](NC(=O)[C@H](CCC(=O)O)NC(=O)[C@H](C)NC(=O)[C@H](C)NC(=O)[C@H](CCC(=O)O)NC(=O)[C@H](Cc1ccc(C(=O)c2ccccc2)cc1)NC(=O)[C@H](Cc1ccccc1)NC(=O)[C@@H](NC(=O)[C@@H](NC(=O)[C@H](CCCNC(=N)N)NC(=O)[C@H](C)NC(=O)[C@H](CC(N)=O)NC(=O)[C@H](CCCCN)NC(=O)[C@H](CCCNC(=N)N)NC(=O)[C@H](CCCCN)NC(=O)[C@H](CCCNC(=N)N)NC(=O)[C@H](CCCCN)NC(=O)[C@@H]1CCCN1C(=O)[C@H](CCCNC(=N)N)NC(=O)[C@H](CCCCN)NC(=O)[C@H](CCCNC(=N)N)NC(=O)[C@H](CCCNC(=N)N)NC(C)=O)C(C)C)[C@H](C)O)[C@@H](C)CC)C(N)=O`, the half-maximal effective concentration (EC50) came out at 0.233 µM. In the case of `CC(=O)N[C@@H](CCCNC(=N)N)C(=O)N[C@H](C(=O)N[C@H](C(=O)N[C@@H](Cc1ccccc1)C(N)=O)[C@@H](C)O)C(C)C` (Ac-RVTF-NH2), the EC50 is 85.7 µM. In the case of `CC(=O)N[C@@H](CCCNC(=N)N)C(=O)N[C@H](C(=O)N[C@H](C(=O)N[C@@H](Cc1ccccc1)C(=O)O)[C@@H](C)O)C(C)C` (Ac-RVTF-OH) it was greater than 500 µM. For the compound `CC(C)[C@H](NC(=O)[C@@H](NC(=O)[C@@H](N)Cc1ccccc1)[C@@H](C)O)C(=O)N[C@@H](CCCNC(=N)N)C(=O)O` (H-FTVR-OH), the concentration giving a half-maximal response (EC50) was greater than 500 µM. In the case of `CC(C)[C@H](NC(=O)[C@H](CCCNC(=N)N)NC(=O)[C@@H](N)CCCCN)C(=O)N[C@@H](Cc1cnc[nH]1)C(=O)N[C@@H](Cc1cccc2ccccc12)C(N)=O` (H-KRVH[1Nal]-NH2) it was 2.5 µM; in that of `CC(C)[C@H](NC(=O)[C@H](CCCNC(=N)N)NC(=O)[C@@H](N)CCCCN)C(=O)N[C@@H](Cc1c[nH]cn1)C(=O)N[C@@H](Cc1ccc2ccccc2c1)C(N)=O` (H-KRVH[2Nal]-NH2), 1.5 µM; in that of `CC(C)[C@H](NC(=O)[C@H](CCCNC(=N)N)NC(=O)[C@@H](N)CCCCN)C(=O)N[C@@H](Cc1cnc[nH]1)C(=O)N[C@@H](CC1CCCCC1)C(N)=O` (H-KRVH[Cha]-NH2), 52.5 µM. Consider `CC(C)[C@H](NC(=O)[C@H](CCCNC(=N)N)NC(=O)[C@@H](N)CCCCN)C(=O)N[C@@H](Cc1c[nH]cn1)C(=O)N(C)[C@@H](Cc1ccccc1)C(N)=O` (H-KRVH[NMeF]-NH2), for which the concentration for a half-maximal effect (EC50) worked out at 23.5 µM. On to `CC(C)[C@H](NC(=O)[C@@H](N)CCCCN)C(=O)N[C@H](C(=O)N[C@@H](Cc1ccccc1)C(=O)O)[C@@H](C)O` (H-KVTF-OH), for which the EC50 is greater than 500 µM.

On to `CC(C)[C@H](NC(=O)C[C@H](CCCNC(=N)N)NC(=O)[C@@H](N)CCCCN)C(=O)N[C@@H](Cc1c[nH]cn1)C(=O)N[C@@H](Cc1ccccc1)C(N)=O` (H-K[β3hR]VHF-NH2), for which the 50% effective concentration (EC50) is 204 µM. `CC(C)[C@H](NC(=O)[C@@H](N)CCCNC(=N)N)C(=O)N[C@@H](CC(=O)O)C(=O)N[C@@H](Cc1ccccc1)C(=O)O` (H-RVDF-OH): the EC50 is greater than 500 µM. On to `CC(C)[C@H](NC(=O)[C@@H](N)CCCNC(=N)N)C(=O)N[C@@H](Cc1ccccc1)C(=O)N[C@@H](Cc1ccccc1)C(=O)O` (H-RVFF-OH), for which the EC50 was greater than 500 µM. In the case of `CC(C)[C@H](NC(=O)[C@@H](N)CCCNC(=N)N)C(=O)N[C@@H](Cc1cnc[nH]1)C(=O)N[C@@H](Cc1ccccc1)C(=O)O` (H-RVHF-OH) it was 69.7 µM.

Take `CC(C)[C@H](NC(=O)[C@@H](N)CCCNC(=N)N)C(=O)N[C@@H](CCCCN)C(=O)N[C@@H](Cc1ccccc1)C(=O)O` (H-RVKF-OH): the EC50 came to 249 µM. On to `CC(C)[C@H](NC(=O)[C@@H](N)CCCNC(=N)N)C(=O)N[C@@H](CC(N)=O)C(=O)N[C@@H](Cc1ccccc1)C(=O)O` (H-RVNF-OH), for which the concentration for a half-maximal effect (EC50) amounted to 220 µM.

With `CC(C)[C@H](NC(=O)[C@@H](N)CCCNC(=N)N)C(=O)N[C@@H](CCC(N)=O)C(=O)N[C@@H](Cc1ccccc1)C(=O)O` (H-RVQF-OH), the 50% effective concentration (EC50) was found to be 224 µM. In the case of `CC(C)[C@H](NC(=O)[C@@H](N)CCCNC(=N)N)C(=O)N[C@@H](CO)C(=O)N[C@@H](Cc1ccccc1)C(=O)O` (H-RVSF-OH), the half-maximal effective concentration (EC50) was greater than 500 µM. Under `CC(C)[C@H](NC(=O)[C@@H](N)CCCNC(=N)N)C(=O)N[C@H](C(=O)N[C@@H](Cc1ccccc1)C(N)=O)[C@@H](C)O` (H-RVTF-NH2) stands 101 µM; under `CC(C)[C@H](NC(=O)[C@@H](N)CCCNC(=N)N)C(=O)N[C@H](C(=O)N[C@@H](Cc1ccccc1)C(=O)O)[C@@H](C)O` (H-RVTF-OH), 234 µM; under `CC(C)[C@H](NC(=O)[C@@H](N)CCCNC(=N)N)C(=O)N[C@H](C(=O)N[C@@H](Cc1c[nH]c2ccccc12)C(=O)O)[C@@H](C)O` (H-RVTW-OH), 256 µM. `CC(C)[C@H](NC(=O)[C@@H](N)CCCNC(=N)N)C(=O)N[C@H](C(=O)N[C@@H](Cc1ccc(O)cc1)C(=O)O)[C@@H](C)O` (H-RVTY-OH): the half-maximal effective concentration (EC50) is greater than 500 µM. As to `CC(C)[C@H](NC(=O)[C@@H](N)CCCNC(=N)N)C(=O)N[C@H](C(=O)N[C@H](Cc1ccccc1)C(=O)O)[C@@H](C)O` (H-RVT[dF]-OH), the EC50 is greater than 500 µM. `CC(C)[C@H](NC(=O)[C@@H](N)CCCNC(=N)N)C(=O)N[C@@H](Cc1c[nH]c2ccccc12)C(=O)N[C@@H](Cc1ccccc1)C(=O)O` (H-RVWF-OH): the EC50 came to 104 µM. `CC(C)[C@H](NC(=O)[C@@H](N)CCCNC(=N)N)C(=O)N[C@@H](C(=O)N[C@@H](Cc1ccccc1)C(=O)O)[C@H](C)O` (H-RV[dT]F-OH): the EC50 is greater than 500 µM. Turning to `CC(C)[C@@H](NC(=O)[C@@H](N)CCCNC(=N)N)C(=O)N[C@H](C(=O)N[C@@H](Cc1ccccc1)C(=O)O)[C@@H](C)O` (H-R[dV]TF-OH), the EC50 was greater than 500 µM. Regarding `CC(C)[C@@H](NC(=O)[C@H](NC(=O)[C@H](N)Cc1ccccc1)[C@H](C)O)C(=O)N[C@H](CCCNC(=N)N)C(=O)O` (H-[dF][dT][dV][dR]-OH), the EC50 is greater than 500 µM. In the case of `CC(C)[C@H](NC(=O)[C@H](N)CCCNC(=N)N)C(=O)N[C@H](C(=O)N[C@@H](Cc1ccccc1)C(=O)O)[C@@H](C)O` (H-[dR]VTF-OH), the 50% effective concentration (EC50) was greater than 500 µM. Under `CC(C)[C@H](NC(=O)[C@H](N)CCCNC(=N)N)C(=O)N[C@H](C(=O)N[C@H](Cc1ccccc1)C(=O)O)[C@@H](C)O` (H-[dR]VT[dF]-OH) stands greater than 500 µM; under `CC(C)[C@@H](NC(=O)[C@H](N)CCCNC(=N)N)C(=O)N[C@@H](C(=O)N[C@@H](Cc1ccccc1)C(=O)O)[C@H](C)O` (H-[dR][dV][dT]F-OH), greater than 500 µM; under `CC(C)[C@H](NC(=O)[C@H](CCCNC(=N)N)NC(=O)[C@@H](N)CCCCNC(=N)N)C(=O)N[C@@H](Cc1cnc[nH]1)C(=O)N[C@@H](Cc1ccccc1)C(N)=O` (H-[hArg]RVHF-NH2), 6.6 µM.

Regarding `CC(C)[C@H](NC(=O)[C@H](CCCNC(=N)N)NC(=O)C[C@@H](N)CCCCN)C(=O)N[C@@H](Cc1c[nH]cn1)C(=O)N[C@@H](Cc1ccccc1)C(N)=O` (H-[β3hK]RVHF-NH2), the concentration giving a half-maximal response (EC50) turned out to be 9.8 µM. As to Ac-KRVHF-NH2, the 50% effective concentration (EC50) stood at 1.7 µM. In the case of Ac-KRVHF-OH, the EC50 was determined as 3.2 µM. Take H-KHVHF-NH2: the EC50 came to 24.6 µM. Consider H-KRVHF-OH, for which the EC50 is 1.5 µM. Under H-RRVHF-OH stands 2.7 µM.
